# Test results taken from patent publication US9867376B2, “Herbicidal compositions comprising N-tetrazol-5-yl)- or N-(triazol-5-yl)arylcarboxamides” (priority 2012, dated 2018).
# Experiments:
# Assay type in all cases: in vivo
# [1] = tested on: Avena fatua; assay: Greenhouse trial, post-emergence, visual herbicidal effect; conditions: alone
# Description: (§1) The weed seeds were sown in pots (diameter 8 cm) with sandy loam soil and germinated under optimum conditions. The herbides were applied by the post-emergence method onto the pots with the cultures, at a spray volume of 300 I/ha. The herbicides were applied on their own and in combination. The trial was conducted in a greenhouse under optimum growth conditions. The herbicidal effects were assessed visually by comparison of untreated and treated plants. The percentages mean: 0%=no effects, 100%=the plants die off completely). The percentages are used to calculate interactions between individual treatments and combination treatment according to S. R. Colby, Weeds 15, pages 20 to 22 (1967).
# (§2) The abbreviations denote: • a.i.=active ingredient • E^C=expected value according to Colby (E^C=A+B−A×B100) • Δ=difference (%) of the measured value to the expected value (%) (measured value minus expected value)
# (§3) Evaluation: • measured value E is greater than E^C:→synergism (+Δ) • measured value E equals E^C:→additive effect • measured value E is smaller than E^C:→antagonism (−Δ)
# [2] = tested on: Phalaris minor; assay: as above; conditions: Table 5-03, greenhouse, alone, 2 g of a.i./ha
# Description: as §1, §2, §3
# [3] = tested on: Viola tricolor; assay: as above; conditions: alone
# Description: as §1, §2, §3
# [4] = tested on: Galium aparine; assay: Field trial, post-emergence, visual scoring; conditions: alone
# Description: (§4) The tests were conducted outdoors (plot trials, 10 m^2 per plot, 2 repetitions, spray application with 200-300 liters of water per hectare). Crops and broad-leaved weeds/weed grasses were sown under customary field conditions. In addition, a natural weed flora also appeared. Application was by the post-emergence method. The application rates of the herbicidally active compounds applied on their own or in combinations are likewise shown in the tables below. Evaluations were by visual scoring (using a 0-100% scale) after application by comparison of treated and untreated test variants.
# as §2, §3
# [5] = tested on: Papaver rhoeas; assay: Greenhouse trial, post-emergence, visual herbicidal effect; conditions: alone
# Description: as §1, §2, §3
# [6] = tested on: Polygonum convolvulus; assay: as above; conditions: alone
# Description: as §1, §2, §3
# [7] = tested on: Centaurea cyanis; assay: as above; conditions: alone
# Description: as §1, §2, §3
# [8] = tested on: Bidens pilosa; assay: as above
# Description: as §1, §2, §3
# [9] = tested on: Brachiaria platyphylla; assay: as above
# Description: as §1, §2, §3
# [10] = tested on: Digitaria sanguinalis; assay: as above
# Description: as §1, §2, §3
# [11] = tested on: Echinochloa crus-galli; assay: as above
# Description: as §1, §2, §3
# [12] = tested on: Pharbitis purpurea; assay: as above; conditions: alone
# Description: as §1, §2, §3
# [13] = tested on: Setaria viridis; assay: as above; conditions: alone
# Description: as §1, §2, §3
# [14] = tested on: Xanthium strumarium; assay: as above; conditions: alone
# Description: as §1, §2, §3
# [15] = tested on: Veronica hederifolia; assay: Field trial, post-emergence, visual scoring; conditions: alone, 25 g of a.i./ha
# Description: as §4, §2, §3
# [16] = tested on: Setaria viridis; assay: Field trial, post-emergence, visual scoring; conditions: alone
# Description: as §4, §2, §3
# [17] = tested on: broad-leaved weeds/weed grasses; assay: Field trial, post-emergence, visual scoring (species not listed above); conditions: dosage 25 g of a.i./ha
# Description: as §4, §2, §3
# [18] = tested on: Lolium multiflorum; assay: Field trial, post-emergence, visual scoring; conditions: alone
# Description: as §4, §2, §3
# [19] = tested on: Sida spinosa; assay: Field trial, post-emergence, visual scoring; conditions: alone
# Description: as §4, §2, §3
# [20] = tested on: Cassia obtusifolia; assay: Field trial, post-emergence, visual scoring; conditions: alone
# Description: as §4, §2, §3
# [21] = tested on: Ambrosia artemisiifolia; assay: Greenhouse trial, post-emergence, visual herbicidal effect; conditions: alone
# Description: as §1, §2, §3
# [22] = tested on: Portulaca oleracea; assay: Field trial, post-emergence, visual scoring; conditions: Table 5-16, field, alone, 50 g of a.i./ha
# Description: as §4, §2, §3
structure (smiles),measurement,setting,value
Cn1nnnc1NC(=O)c1ccc(C(F)(F)F)cc1S(C)(=O)=O [A1-2],Activity [%] against Avena fatua,"[1]; Table 5-01, greenhouse, 2 g of a.i./ha",0%
same,Activity [%] against Phalaris minor,[2],0%
same,Activity [%] against Viola tricolor,"[3]; Table 5-02, greenhouse, 2 g of a.i./ha",60%
same,Activity [%] against Galium aparine,"[4]; Table 5-04, field, 25 g of a.i./ha",70%
Cc1c(C(=O)Nc2nnnn2C)ccc(C(F)(F)F)c1S(C)(=O)=O [A1-7],Activity [%] against Avena fatua,"[1]; Table 5-05, greenhouse, 3 g of a.i./ha",0%
same,Activity [%] against Avena fatua,"[1]; Table 5-07, greenhouse, 3 g of a.i./ha",0%
same,Activity [%] against Papaver rhoeas,"[5]; Table 5-06, greenhouse, 3 g of a.i./ha",60%
same,Activity [%] against Polygonum convolvulus,"[6]; Table 5-08, greenhouse, 3 g of a.i./ha",10%
same,Activity [%] against Viola tricolor,"[3]; Table 5-09, greenhouse, 3 g of a.i./ha",50%
Cc1c(C(=O)Nc2nnnn2C)ccc(S(C)(=O)=O)c1-n1cccn1 [A1-26],Activity [%] against Centaurea cyanis,"[7]; Table 5-38, greenhouse, 3 g of a.i./ha",40%
same,Activity [%] against Centaurea cyanis,"[7]; Table 5-40, greenhouse, 6 g of a.i./ha",60%
same,Activity [%] against Papaver rhoeas,"[5]; Table 5-39, greenhouse, 6 g of a.i./ha",50%
same,Activity [%] against Papaver rhoeas,"[5]; Table 5-41, greenhouse, 3 g of a.i./ha",30%
same,Activity [%] against Viola tricolor,"[3]; Table 5-42, greenhouse, 3 g of a.i./ha",50%
COCCOCc1c(S(C)(=O)=O)ccc(C(=O)Nc2nnnn2C)c1Cl [A1-63],Activity [%] against Bidens pilosa,"[8]; Table 5-71, greenhouse, alone, 8 g of a.i./ha",50%
same,Activity [%] against Brachiaria platyphylla,"[9]; Table 5-67, greenhouse, alone, 8 g of a.i./ha",10%
same,Activity [%] against Digitaria sanguinalis,"[10]; Table 5-68, greenhouse, alone, 8 g of a.i./ha",45%
same,Activity [%] against Echinochloa crus-galli,"[11]; Table 5-69, greenhouse, alone, 8 g of a.i./ha",85%
same,Activity [%] against Pharbitis purpurea,"[12]; Table 5-72, greenhouse, 4 g of a.i./ha",35%
same,Activity [%] against Setaria viridis,"[13]; Table 5-70, greenhouse, 4 g of a.i./ha",50%
same,Activity [%] against Xanthium strumarium,"[14]; Table 5-73, greenhouse, 8 g of a.i./ha",80%
same,Activity [%] against Veronica hederifolia,"[15]; Table 5-74, field",68%
COc1c(S(C)(=O)=O)ccc(C(=O)Nc2nnnn2C)c1Cl [A1-67],Activity [%] against Polygonum convolvulus,"[6]; Table 5-78, greenhouse, 4 g of a.i./ha",10%
same,Activity [%] against Xanthium strumarium,"[14]; Table 5-77, greenhouse, 4 g of a.i./ha",0%
same,Activity [%] against Setaria viridis,"[16]; Table 5-80, field, 25 g of a.i./ha",65%
same,Activity [%] against Veronica hederifolia,"[15]; Table 5-79, field",75%
COc1c(C(=O)Nc2nnnn2C)ccc(C(F)F)c1SC [A1-81],Activity [%] against Brachiaria platyphylla,"[9]; Table 5-94, greenhouse, alone, 1 g of a.i./ha",10%
same,Activity [%] against Echinochloa crus-galli,"[11]; Table 5-95, greenhouse, alone, 1 g of a.i./ha",10%
Cn1ncnc1NC(=O)c1ccc(C(F)(F)F)c(S(C)(=O)=O)c1Cl [A2-9],Activity [%] against Brachiaria platyphylla,"[9]; Greenhouse, dosage 1 g of a.i./ha, Table 5-105",0%
same,Activity [%] against Digitaria sanguinalis,"[10]; Greenhouse, dosage 2 g of a.i./ha",65%
same,Activity [%] against Echinochloa crus-galli,"[11]; Greenhouse, dosage 1 g of a.i./ha, Table 5-108",0%
COCc1nc(C(F)(F)F)ccc1C(=O)Nc1nnnn1C [A4-2],Activity [%] against Brachiaria platyphylla,"[9]; Greenhouse, dosage 1 g of a.i./ha, Table 5-113",0%
same,Activity [%] against Stellaria media,[17]; Table 5-114,63%
Cn1nnnc1NC(=O)c1ccc(C(F)(F)F)nc1Cl [A4-7],Activity [%] against Echinochloa crus-galli,"[11]; Greenhouse, dosage 3 g of a.i./ha, Table 5-115",50%
same,Activity [%] against Stellaria media,[17]; Table 5-116,60%
Cc1cc(Cl)ccc1OCC(=O)O [MCPA],Activity [%] against Galium aparine,"[4]; Table 5-61, field, 280 g of a.i./ha",0%
same,Activity [%] against Lolium multiflorum,"[18]; Table 5-54, field, 280 g of a.i./ha",0%
same,Activity [%] against Setaria viridis,"[16]; Table 5-26, field, 280 g of a.i./ha",0%
same,Activity [%] against Setaria viridis,"[16]; Table 5-80, field, 280 g of a.i./ha",0%
COc1c(Cl)ccc(Cl)c1C(=O)O [dicamba],Activity [%] against Brachiaria platyphylla,"[9]; Greenhouse, dosage 12.5 g of a.i./ha, Table 5-105",0%
same,Activity [%] against Brachiaria platyphylla,"[9]; Table 5-64, greenhouse, alone, 25 g of a.i./ha",10%
same,Activity [%] against Brachiaria platyphylla,"[9]; Table 5-94, greenhouse, alone, 12.5 g of a.i./ha",0%
same,Activity [%] against Digitaria sanguinalis,"[10]; Greenhouse, dosage 12.5 g of a.i./ha",0%
same,Activity [%] against Echinochloa crus-galli,"[11]; Greenhouse, dosage 12.5 g of a.i./ha, Table 5-108",0%
same,Activity [%] against Echinochloa crus-galli,"[11]; Greenhouse, dosage 12.5 g of a.i./ha, Table 5-115",0%
same,Activity [%] against Echinochloa crus-galli,"[11]; Table 5-95, greenhouse, alone, 12.5 g of a.i./ha",0%
same,Activity [%] against Setaria viridis,"[13]; Table 5-65, greenhouse, 25 g of a.i./ha",0%
O=C(Nc1ccc(F)cc1F)c1cccnc1Oc1cccc(C(F)(F)F)c1 [diflufenican],Activity [%] against Lolium multiflorum,"[18]; Table 5-58, field, 120 g of a.i./ha",10%
CP(=O)(O)CCC(N)C(=O)O (centres unmarked) [glufosinate-ammonium],Activity [%] against Sida spinosa,"[19]; Table 5-10, field, 125 g of a.i./ha",50%
O=C(O)CNCP(=O)([O-])O.[K+] [glyphosate-potassium],Activity [%] against Sida spinosa,"[19]; Table 5-11, field, 200 g of a.i./ha",30%
O=C(O)CNCP(=O)(O)O [glyphosate],Activity [%] against Cassia obtusifolia,"[20]; Table 5-12, field, 200 g of a.i./ha",65%
Cc1ccc2c(c1)[C@H](Nc1nc(N)nc(C(C)F)n1)[C@@H](C)C2 (some centres unmarked) [indaziflam],Activity [%] against Cassia obtusifolia,"[20]; Table 5-24, field, 25 g of a.i./ha",65%
O=c1[nH]c2c(c(=O)n1C1CCCCC1)CCC2 [lenacil],Activity [%] against Ambrosia artemisiifolia,"[21]; Table 5-29, greenhouse, 16 g of a.i./ha",0%
same,Activity [%] against Ambrosia artemisiifolia,"[21]; Table 5-32, greenhouse, 4 g of a.i./ha",0%
same,Activity [%] against Bidens pilosa,"[8]; Greenhouse, dosage 4 g of a.i./ha",0%
same,Activity [%] against Bidens pilosa,"[8]; Table 5-28, greenhouse, alone, 4 g of a.i./ha",0%
same,Activity [%] against Bidens pilosa,"[8]; Table 5-33, greenhouse, alone, 4 g of a.i./ha",0%
same,Activity [%] against Bidens pilosa,"[8]; Table 5-71, greenhouse, alone, 400 g of a.i./ha",0%
same,Activity [%] against Brachiaria platyphylla,"[9]; Greenhouse, dosage 4 g of a.i./ha, Table 5-109",0%
same,Activity [%] against Brachiaria platyphylla,"[9]; Greenhouse, dosage 4 g of a.i./ha, Table 5-110",0%
same,Activity [%] against Brachiaria platyphylla,"[9]; Table 5-55, greenhouse, alone, 4 g of a.i./ha",0%
same,Activity [%] against Brachiaria platyphylla,"[9]; Table 5-57, greenhouse, alone, 4 g of a.i./ha",0%
same,Activity [%] against Brachiaria platyphylla,"[9]; Table 5-67, greenhouse, alone, 800 g of a.i./ha",0%
same,Activity [%] against Digitaria sanguinalis,"[10]; Table 5-35, greenhouse, alone, 4 g of a.i./ha",0%
same,Activity [%] against Digitaria sanguinalis,"[10]; Table 5-68, greenhouse, alone, 400 g of a.i./ha",0%
same,Activity [%] against Echinochloa crus-galli,"[11]; Table 5-69, greenhouse, alone, 400 g of a.i./ha",0%
same,Activity [%] against Pharbitis purpurea,"[12]; Table 5-30, greenhouse, 4 g of a.i./ha",0%
same,Activity [%] against Pharbitis purpurea,"[12]; Table 5-34, greenhouse, 4 g of a.i./ha",0%
same,Activity [%] against Pharbitis purpurea,"[12]; Table 5-72, greenhouse, 100 g of a.i./ha",0%
same,Activity [%] against Setaria viridis,"[13]; Table 5-27, greenhouse, 8 g of a.i./ha",0%
same,Activity [%] against Setaria viridis,"[13]; Table 5-31, greenhouse, 8 g of a.i./ha",0%
same,Activity [%] against Setaria viridis,"[13]; Table 5-70, greenhouse, 100 g of a.i./ha",0%
same,Activity [%] against Xanthium strumarium,"[14]; Table 5-56, greenhouse, 4 g of a.i./ha",0%
same,Activity [%] against Xanthium strumarium,"[14]; Table 5-73, greenhouse, 400 g of a.i./ha",0%
CSc1nnc(C(C)(C)C)c(=O)n1N [metribuzin],Activity [%] against Portulaca oleracea,[22],0%
same,Activity [%] against Sida spinosa,"[19]; Table 5-21, field, 50 g of a.i./ha",25%
Cc1c(C(=O)c2cnn(C)c2O)ccc(S(C)(=O)=O)c1C1=NOCC1 [topramezone],Activity [%] against Setaria viridis,"[16]; Table 5-23, field, 9 g of a.i./ha",30%
